Laboratory results as given in patent US20070066561A1, “Drug delivery and targeting with vitamin B12 conjugates” (New York University, priority 2002, published 2007).
In brackets after ≈: the same amount, converted by molar mass.

What was measured:
[1] = system: K562 Erythroleukemia; experiment: Cytotoxicity against human cell lines grown in culture, MTT assay; format: cell-based; settings: 72 hr continuous incubation, 5% human serum, relative cell growth by MTT, means of duplicate experiments
Excerpt: (§1) The data below are means of duplicate experiments with similar results.

[2] = system: HL60 Promyelocytic leukemia; experiment: as above; format: cell-based; settings: 72 hr continuous incubation, 5% human serum, relative cell growth by MTT, means of duplicate experiments
Excerpt: as §1

[3] = system: KARPAS-291 Lymphoma; experiment: as above; format: cell-based; settings: 72 hr continuous incubation, 5% human serum, relative cell growth by MTT, means of duplicate experiments
Excerpt: as §1

[4] = Bioactivity of cobalamin conjugates (test not described)
[5] = molecular target: T1, transcobalamin II (TCII) (Homo sapiens, UniProt P20062); experiment: Binding to transcobalamin II; settings: compared with control vitamin B12; listed as p-iodohippuric acid TFP ester conjugated to the e-cyanocobalamin via the 4,7,10-
T1 sequence (P20062 19-427): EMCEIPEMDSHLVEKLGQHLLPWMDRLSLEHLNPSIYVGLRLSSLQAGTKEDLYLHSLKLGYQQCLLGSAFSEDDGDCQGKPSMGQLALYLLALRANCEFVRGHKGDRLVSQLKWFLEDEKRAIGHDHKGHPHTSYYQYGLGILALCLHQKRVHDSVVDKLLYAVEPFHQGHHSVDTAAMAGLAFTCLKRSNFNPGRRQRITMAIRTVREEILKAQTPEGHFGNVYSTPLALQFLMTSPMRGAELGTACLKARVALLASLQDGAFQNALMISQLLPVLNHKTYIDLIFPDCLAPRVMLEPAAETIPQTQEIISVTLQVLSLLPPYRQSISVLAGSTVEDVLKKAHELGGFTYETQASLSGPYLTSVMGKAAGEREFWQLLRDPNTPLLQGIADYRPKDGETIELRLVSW
Protocol: This conjugate may be used as a standard for future B12 derivatives because of its higher rate of binding to TCII, which is required for efficient delivery to the appropriate receptors.
The p-iodohippuric acid TFP ester conjugated to the e-cyanocobalamin via the 4,7,10-trioxa-1,13-tridecanediamine linker was assessed for binding to transcobalamin II (TCII).

[6] = cited from earlier work
[7] = between pH about 4 and 7; cited from earlier work

## CC(=O)O[C@H]1C(=O)[C@@]2(C)[C@H]([C@H](OC(=O)c3ccccc3)[C@]3(O)C[C@H](OC(=O)[C@H](O)[C@@H](NC(=O)c4ccccc4)c4ccccc4)C(C)=C1C3(C)C)[C@]1(OC(C)=O)CO[C@@H]1C[C@@H]2O [Taxol, Paclitaxel]
[1]; K562
  IC50: 4 ng/mL (≈ 4.68 nM)
[2]; HL-60
  IC50: 0.15 ng/mL (≈ 0.176 nM)
[3]
  IC50: 2 ng/mL (≈ 2.34 nM)

## B12-P-Hippuric acid-4,7,10-trioxa-1,13-tridecanediamine e-cyanocobalamin monocarboxylic acid conjugate [B12 P-Hippuric acid]
[4]
  Bioactivity: bioactive
[5]
  Binding to TCII: substantially as great as for control vitamin B12

## cyanocobalamin [B12]
[6]
  Solubility in acetone, ether, and chloroform: insoluble
  Solubility in lower alcohols and phenol: moderately soluble
[6]; room temperature
  Solubility in water: 12 mg/mL
[7]
  Stability in aqueous solutions: quite stable
[1]
  Cytotoxicity, K562 Erythroleukemia: 250 ng/mL
[2]
  Cytotoxicity, HL60 Promyelocytic leukemia: 152 ng/mL
[3]
  Cytotoxicity, KARPAS-291 Lymphoma: 294 ng/mL

## p-iodohippuryl-1,12-diaminododecane conjugated to cyanocobalamin-e-carboxylate
[4]
  Bioactivity: most bioactive conjugate studied
